Source: the supplement of paper PMC10307832

Assays:
Assay in all cases: relative viability (nuclei count vs DMSO), 5 days (fraction); higher = more cells survive
Quizartinib + Crizotinib = compound: CC(C)(C)c1cc(NC(=O)Nc2ccc(-c3cn4c(n3)sc3cc(OCCN5CCOCC5)ccc34)cc2)no1 [Quizartinib] + C[C@@H](Oc1cc(-c2cnn(C3CCNCC3)c2)cnc1N)c1c(Cl)ccc(F)c1Cl [Crizotinib] (partner 1 µM)
In short: (§1)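 Lung cancer cell lines, seeded in 1536-well plates, were treated the following day by pin tool with a single drug or with five library-drug doses (not always all listed) in √10 steps on top of a fixed anchor-drug dose. Cells were fixed and nuclei stained in one step after 5 days, and nuclei were counted. Relative viability is the nuclei count for treated wells divided by that for vehicle wells, reported as medians of duplicate plates.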

Quizartinib + Linsitinib = compound: CC(C)(C)c1cc(NC(=O)Nc2ccc(-c3cn4c(n3)sc3cc(OCCN5CCOCC5)ccc34)cc2)no1 [Quizartinib] + C[C@]1(O)C[C@@H](c2nc(-c3ccc4ccc(-c5ccccc5)nc4c3)c3c(N)nccn32)C1 [Linsitinib] (partner 1 µM)
In short: as §1

Quizartinib + Foretinib = compound: CC(C)(C)c1cc(NC(=O)Nc2ccc(-c3cn4c(n3)sc3cc(OCCN5CCOCC5)ccc34)cc2)no1 [Quizartinib] + COc1cc2c(Oc3ccc(NC(=O)C4(C(=O)Nc5ccc(F)cc5)CC4)cc3F)ccnc2cc1OCCCN1CCOCC1 [Foretinib] (partner 0.25 µM)
In short: as §1

YM155 + Pictilisib = compound: COCC[n+]1c2c(n(Cc3cnccn3)c1C)C(=O)c1ccccc1C2=O [YM155] + CS(=O)(=O)N1CCN(Cc2cc3nc(-c4cccc5[nH]ncc45)nc(N4CCOCC4)c3s2)CC1 [Pictilisib] (partner 1 µM)
In short: as §1

COR-L23
relative viability (Quizartinib + Crizotinib; first compound 0.001 µM): 0.573
relative viability (Quizartinib + Crizotinib; first compound 0.003162 µM): 0.538
relative viability (Quizartinib + Crizotinib; first compound 0.01 µM): 0.753
relative viability (Quizartinib + Crizotinib; first compound 0.03162 µM): 0.51
relative viability (Quizartinib + Crizotinib; first compound 0.1 µM): 0.67
relative viability (Quizartinib + Linsitinib; first compound 0.001 µM): 0.829
relative viability (Quizartinib + Linsitinib; first compound 0.003162 µM): 0.9
relative viability (Quizartinib + Linsitinib; first compound 0.01 µM): 1.05
relative viability (Quizartinib + Linsitinib; first compound 0.03162 µM): 0.748
relative viability (Quizartinib + Linsitinib; first compound 0.1 µM): 0.92
relative viability (Quizartinib + Foretinib; first compound 0.001 µM): 0.979
relative viability (Quizartinib + Foretinib; first compound 0.003162 µM): 0.856
relative viability (Quizartinib + Foretinib; first compound 0.01 µM): 1.06
relative viability (Quizartinib + Foretinib; first compound 0.03162 µM): 0.973
relative viability (Quizartinib + Foretinib; first compound 0.1 µM): 1.02
relative viability (YM155 + Pictilisib; first compound 0.002 µM): 0.692
relative viability (YM155 + Pictilisib; first compound 0.006325 µM): 0.636
relative viability (YM155 + Pictilisib; first compound 0.02 µM): 0.408
relative viability (YM155 + Pictilisib; first compound 0.06325 µM): 0.175

NCI-H1355
relative viability (Quizartinib + Crizotinib; first compound 0.001 µM): 1.03
relative viability (Quizartinib + Crizotinib; first compound 0.003162 µM): 1.01
relative viability (Quizartinib + Crizotinib; first compound 0.01 µM): 1.11
relative viability (Quizartinib + Crizotinib; first compound 0.03162 µM): 0.99
relative viability (Quizartinib + Crizotinib; first compound 0.1 µM): 1.15
relative viability (Quizartinib + Linsitinib; first compound 0.001 µM): 0.804
relative viability (Quizartinib + Linsitinib; first compound 0.003162 µM): 0.817
relative viability (Quizartinib + Linsitinib; first compound 0.01 µM): 0.827
relative viability (Quizartinib + Linsitinib; first compound 0.03162 µM): 0.799
relative viability (Quizartinib + Linsitinib; first compound 0.1 µM): 0.842
relative viability (Quizartinib + Foretinib; first compound 0.001 µM): 0.917
relative viability (Quizartinib + Foretinib; first compound 0.003162 µM): 0.957
relative viability (Quizartinib + Foretinib; first compound 0.01 µM): 0.936
relative viability (Quizartinib + Foretinib; first compound 0.03162 µM): 0.814
relative viability (Quizartinib + Foretinib; first compound 0.1 µM): 1.06
relative viability (YM155 + Pictilisib; first compound 0.002 µM): 0.403
relative viability (YM155 + Pictilisib; first compound 0.006325 µM): 0.484
relative viability (YM155 + Pictilisib; first compound 0.02 µM): 0.462
relative viability (YM155 + Pictilisib; first compound 0.06325 µM): 0.514

NCI-H2085
relative viability (Quizartinib + Crizotinib; first compound 0.001 µM): 0.745
relative viability (Quizartinib + Crizotinib; first compound 0.003162 µM): 0.795
relative viability (Quizartinib + Crizotinib; first compound 0.01 µM): 0.998
relative viability (Quizartinib + Crizotinib; first compound 0.03162 µM): 0.833
relative viability (Quizartinib + Crizotinib; first compound 0.1 µM): 0.836
relative viability (Quizartinib + Linsitinib; first compound 0.001 µM): 0.866
relative viability (Quizartinib + Linsitinib; first compound 0.003162 µM): 0.844
relative viability (Quizartinib + Linsitinib; first compound 0.01 µM): 0.973
relative viability (Quizartinib + Linsitinib; first compound 0.03162 µM): 0.907
relative viability (Quizartinib + Linsitinib; first compound 0.1 µM): 0.948
relative viability (Quizartinib + Foretinib; first compound 0.001 µM): 0.868
relative viability (Quizartinib + Foretinib; first compound 0.003162 µM): 0.853
relative viability (Quizartinib + Foretinib; first compound 0.01 µM): 1.2
relative viability (Quizartinib + Foretinib; first compound 0.03162 µM): 0.873
relative viability (Quizartinib + Foretinib; first compound 0.1 µM): 0.883
relative viability (YM155 + Pictilisib; first compound 0.002 µM): 0.435
relative viability (YM155 + Pictilisib; first compound 0.006325 µM): 0.38
relative viability (YM155 + Pictilisib; first compound 0.02 µM): 0.534
relative viability (YM155 + Pictilisib; first compound 0.06325 µM): 0.429

A-427
relative viability (Quizartinib + Crizotinib; first compound 0.001 µM): 0.808
relative viability (Quizartinib + Crizotinib; first compound 0.003162 µM): 0.926
relative viability (Quizartinib + Crizotinib; first compound 0.01 µM): 0.941
relative viability (Quizartinib + Crizotinib; first compound 0.03162 µM): 0.813
relative viability (Quizartinib + Crizotinib; first compound 0.1 µM): 0.638
relative viability (Quizartinib + Linsitinib; first compound 0.001 µM): 1.04
relative viability (Quizartinib + Linsitinib; first compound 0.003162 µM): 1.08
relative viability (Quizartinib + Linsitinib; first compound 0.01 µM): 1.14
relative viability (Quizartinib + Linsitinib; first compound 0.03162 µM): 1.04
relative viability (Quizartinib + Linsitinib; first compound 0.1 µM): 1.12
relative viability (Quizartinib + Foretinib; first compound 0.003162 µM): 0.988
relative viability (Quizartinib + Foretinib; first compound 0.01 µM): 0.97
relative viability (Quizartinib + Foretinib; first compound 0.03162 µM): 1.04
relative viability (Quizartinib + Foretinib; first compound 0.1 µM): 0.957
relative viability (YM155 + Pictilisib; first compound 0.002 µM): 0.592
relative viability (YM155 + Pictilisib; first compound 0.006325 µM): 0.736
relative viability (YM155 + Pictilisib; first compound 0.02 µM): 0.802
relative viability (YM155 + Pictilisib; first compound 0.06325 µM): 0.705

LOU-NH91
relative viability (Quizartinib + Crizotinib; first compound 0.001 µM): 0.747
relative viability (Quizartinib + Crizotinib; first compound 0.003162 µM): 0.715
relative viability (Quizartinib + Crizotinib; first compound 0.01 µM): 0.771
relative viability (Quizartinib + Crizotinib; first compound 0.03162 µM): 0.729
relative viability (Quizartinib + Crizotinib; first compound 0.1 µM): 0.79
relative viability (Quizartinib + Linsitinib; first compound 0.001 µM): 0.899
relative viability (Quizartinib + Linsitinib; first compound 0.003162 µM): 0.954
relative viability (Quizartinib + Linsitinib; first compound 0.01 µM): 0.996
relative viability (Quizartinib + Linsitinib; first compound 0.03162 µM): 0.825
relative viability (Quizartinib + Linsitinib; first compound 0.1 µM): 1.11
relative viability (Quizartinib + Foretinib; first compound 0.001 µM): 0.967
relative viability (Quizartinib + Foretinib; first compound 0.003162 µM): 0.903
relative viability (Quizartinib + Foretinib; first compound 0.01 µM): 0.906
relative viability (Quizartinib + Foretinib; first compound 0.03162 µM): 0.902
relative viability (Quizartinib + Foretinib; first compound 0.1 µM): 1.02
relative viability (YM155 + Pictilisib; first compound 0.002 µM): 0.495
relative viability (YM155 + Pictilisib; first compound 0.006325 µM): 0.519
relative viability (YM155 + Pictilisib; first compound 0.02 µM): 0.578
relative viability (YM155 + Pictilisib; first compound 0.06325 µM): 0.535

CAL-12T
relative viability (Quizartinib + Crizotinib; first compound 0.001 µM): 0.652
relative viability (Quizartinib + Crizotinib; first compound 0.003162 µM): 0.662
relative viability (Quizartinib + Crizotinib; first compound 0.01 µM): 0.724
relative viability (Quizartinib + Crizotinib; first compound 0.03162 µM): 0.202
relative viability (Quizartinib + Crizotinib; first compound 0.1 µM): 0.696
relative viability (Quizartinib + Linsitinib; first compound 0.001 µM): 0.744
relative viability (Quizartinib + Linsitinib; first compound 0.003162 µM): 0.771
relative viability (Quizartinib + Linsitinib; first compound 0.01 µM): 0.976
relative viability (Quizartinib + Linsitinib; first compound 0.03162 µM): 0.882
relative viability (Quizartinib + Linsitinib; first compound 0.1 µM): 0.986
relative viability (Quizartinib + Foretinib; first compound 0.001 µM): 0.781
relative viability (Quizartinib + Foretinib; first compound 0.003162 µM): 1.1
relative viability (Quizartinib + Foretinib; first compound 0.01 µM): 1.14
relative viability (Quizartinib + Foretinib; first compound 0.03162 µM): 0.935
relative viability (Quizartinib + Foretinib; first compound 0.1 µM): 1.22
relative viability (YM155 + Pictilisib; first compound 0.006325 µM): 0.566
relative viability (YM155 + Pictilisib; first compound 0.02 µM): 0.557
relative viability (YM155 + Pictilisib; first compound 0.06325 µM): 0.392

NCI-H520
relative viability (Quizartinib + Crizotinib; first compound 0.001 µM): 0.726
relative viability (Quizartinib + Crizotinib; first compound 0.003162 µM): 0.686
relative viability (Quizartinib + Crizotinib; first compound 0.01 µM): 0.739
relative viability (Quizartinib + Crizotinib; first compound 0.03162 µM): 0.726
relative viability (Quizartinib + Crizotinib; first compound 0.1 µM): 0.666
relative viability (Quizartinib + Linsitinib; first compound 0.001 µM): 0.862
relative viability (Quizartinib + Linsitinib; first compound 0.003162 µM): 0.992
relative viability (Quizartinib + Linsitinib; first compound 0.01 µM): 0.888
relative viability (Quizartinib + Linsitinib; first compound 0.03162 µM): 0.934
relative viability (Quizartinib + Linsitinib; first compound 0.1 µM): 0.859
relative viability (Quizartinib + Foretinib; first compound 0.001 µM): 0.81
relative viability (Quizartinib + Foretinib; first compound 0.003162 µM): 0.636
relative viability (Quizartinib + Foretinib; first compound 0.01 µM): 0.894
relative viability (Quizartinib + Foretinib; first compound 0.03162 µM): 0.722
relative viability (Quizartinib + Foretinib; first compound 0.1 µM): 0.541
relative viability (YM155 + Pictilisib; first compound 0.002 µM): 0.236
relative viability (YM155 + Pictilisib; first compound 0.006325 µM): 0.298
relative viability (YM155 + Pictilisib; first compound 0.02 µM): 0.255
relative viability (YM155 + Pictilisib; first compound 0.06325 µM): 0.293

LCLC-103H
relative viability (Quizartinib + Crizotinib; first compound 0.001 µM): 0.784
relative viability (Quizartinib + Crizotinib; first compound 0.003162 µM): 1.16
relative viability (Quizartinib + Crizotinib; first compound 0.01 µM): 0.992
relative viability (Quizartinib + Crizotinib; first compound 0.03162 µM): 1.05
relative viability (Quizartinib + Crizotinib; first compound 0.1 µM): 1.02
relative viability (Quizartinib + Linsitinib; first compound 0.001 µM): 0.946
relative viability (Quizartinib + Linsitinib; first compound 0.003162 µM): 1.05
relative viability (Quizartinib + Linsitinib; first compound 0.01 µM): 1.06
relative viability (Quizartinib + Linsitinib; first compound 0.03162 µM): 1.2
relative viability (Quizartinib + Linsitinib; first compound 0.1 µM): 0.882
relative viability (Quizartinib + Foretinib; first compound 0.001 µM): 0.786
relative viability (Quizartinib + Foretinib; first compound 0.003162 µM): 0.7
relative viability (Quizartinib + Foretinib; first compound 0.01 µM): 0.8
relative viability (Quizartinib + Foretinib; first compound 0.03162 µM): 0.788
relative viability (Quizartinib + Foretinib; first compound 0.1 µM): 0.995
relative viability (YM155 + Pictilisib; first compound 0.002 µM): 0.595
relative viability (YM155 + Pictilisib; first compound 0.006325 µM): 0.654
relative viability (YM155 + Pictilisib; first compound 0.02 µM): 0.668
relative viability (YM155 + Pictilisib; first compound 0.06325 µM): 0.508
